Measured values from a melting point compilation (Tetko et al.; mined from patent text by program, amines drawn as free bases though some values may be those of a salt).

Row | melting point [°C] | SMILES
1 | 117 to 119 | O=C(Cl)c1sc2ccc(Oc3ccccc3)cc2c1Cl
2 | 127 | CCCn1c(=O)c2c(nc(/C=C/c3ccc(OC)c(OC)c3)n2C)n(CCC)c1=O
3 | 136 | COc1ccccc1Cn1c(-c2cc(OC)c(OC)c(OC)c2)nc2ccccc21
4 | 130 | CCCc1c(OCC(O)COc2ccc3c(C)c(CC(=O)O)c(=O)oc3c2)ccc(C(C)=O)c1O (configuration not stated)
5 | 108 to 109 | COC(=O)CC(NSc1ccccc1[N+](=O)[O-])C(=O)O (configuration not stated)
6 | 98 | CC(C)c1ccc(NC(=O)C(F)(F)F)cc1
7 | 103 to 105 | CCC(CNC(=O)c1cc(C#N)c(Cl)cc1OC)NC(C)C (configuration not stated)
8 | 141 to 143 | COC(=O)C1CCc2c(noc2-c2ccc(Cl)cc2)C1 (configuration not stated)
9 | 182 to 183 | COc1ccc(C(=O)c2ccc(OCc3nc(-c4cccc(OS(C)(=O)=O)c4)oc3C)cc2)c(OC(C)(C)C(=O)O)c1
10 | 156 to 157 | CCc1[nH]nc(C(=O)NC2CCCC2)c1[N+](=O)[O-]
11 | 227 to 228 | O=C(O)c1cc(NCc2ccc(Cl)cc2)ccc1O
12 | 165 to 168 | CCC(O)(CC)[C@H](C[C@H](O)[C@H](CC1CCCCC1)NC(=O)[C@H](Cc1cscn1)NC(=O)OC(C)(C)C)C(=O)NC
13 | 88.5 to 90 | CCNC(=O)CCC(=O)c1cnc2c(OC)cccc2c1Nc1ccccc1C
14 | 112 | CC(C)(C)NCC(O)COc1ccccc1C=Cc1cccc2c1CC(=O)N2 (configuration not stated)
15 | 96 to 98 | CC(C)(CNC(=O)Cc1ccccc1)NCC(O)c1cc(Cl)c(N)c(Cl)c1 (configuration not stated)
16 | 110 to 111 | COc1ccc(C2(O)c3cc(NC(=O)CC(C)(C)C)c(C)c(C)c3OC2(C)C)cc1 (configuration not stated)
17 | 166 to 167 | CCOC(=O)C=Nc1cc(Cl)ccc1C(=O)O

Row | melting point [°C] | SMILES
18 | 42 to 43 | C#CC(C)N(C)c1nc2ccc(OC(F)(F)F)cc2s1 (configuration not stated)
19 | 155 to 160 | O=C(Oc1ccc(Cl)cc1[N+](=O)[O-])c1ccccc1O
20 | 106 to 107 | COC(=O)c1ccc(CNC(=O)OCc2ccccc2)cc1OCc1ccccc1
21 | 65 to 67 | O=C(NCC(S)CO)OCc1ccc([N+](=O)[O-])cc1 (configuration not stated)
22 | 194 | COc1ccc(Nc2nc(Cl)nc(Nc3ccc(OC)c(F)c3)n2)cc1F
23 | 210 | CNC(=O)c1cccc2cccc(NC(=O)c3cccs3)c12
24 | 109 | CCCCCC(=O)N1CCc2nc3ccccc3c(C)c2CC1
25 | 208 to 211 | CC(C)C(S)C(=O)NC1(C(=O)NC(Cc2ccc(-c3ccccc3)nc2)C(=O)O)CCCC1 (configuration not stated)
26 | 206 to 207 | CC(=O)NC[C@H]1CN(c2ccc(N3CCC(Cc4nnc(N)s4)CC3)c(F)c2)C(=O)O1
27 | 165 to 166 | COc1cc2cc(-c3ccc(OCC(O)CNC(C)(C)C)cc3)n(C)c(=O)c2cc1OC (configuration not stated)
28 | 248 to 249 | Cc1ccccc1-c1cc(C#N)c(SSc2[nH]c(-c3ccccc3C)cc2C#N)[nH]1
29 | 200 to 202 | CC(CCCc1ccccc1)c1cc2oc(=O)c3c(c2cc1O)C(=O)CCC3 (configuration not stated)
30 | 133 to 135 | COC(=O)C1Cc2ccc([N+](=O)[O-])cc2CN1 (configuration not stated)
31 | 261 to 263 | CCCOc1ccc(S(=O)(=O)Nc2ccc3[nH]ncc3c2)cc1-c1nc2cc(N)c([N+](=O)[O-])cc2c(=O)[nH]1
32 | 176 to 178 | CC(C)(C)c1cc(C=C2SCN(CCN)C2=O)cc(C(C)(C)C)c1O
33 | 131 | CCOc1cc2c(cc1OC(C)=O)OCS2

Further lines, the compound ahead of its results:

Row | SMILES | melting point [°C]
34 | CCOC(=O)CC1(Cc2ccncc2)C(=O)N(N2CCOCC2)c2ccccc21 (configuration not stated) | 168
35 | CC1(CSc2ccccc2)COC2(CCCCC2)OO1 (configuration not stated) | 45 to 46
36 | CN(C)c1ccc(C(=O)N2CCC(C(c3ccccc3)c3ccccc3)CC2)cc1 | 177 to 179
37 | CCS(=O)(=O)c1ccc(C(CC2CCCC2)C(=O)O)cc1 (configuration not stated) | 137 to 138
38 | CN1CCC(NCc2ccccc2)(c2ccccc2)C(O)C1 (configuration not stated) | 162 to 164
39 | CCCCc1nc2cccc(C)c2c(=O)n1Cc1ccc(C2(C(=O)O)CC=CC2)s1 | 150 to 151
40 | Nc1cccc(-c2ccc(CCN3CCN(C(=O)Cc4ccc(Cl)cc4)CC3)cc2)n1 | 205
41 | CN1CCN(C(=O)c2ccc(-c3cnc4c(c3)N(Cc3cc(F)c(F)cc3F)C(=O)CN4)cc2)CC1 | 238
42 | COc1c(-c2cc3c(s2)CCC/C3=N\OCc2ccccn2)ccc2c(=O)c(C(=O)O)cn(C3CC3)c12 | 178 to 179
43 | Cc1nnc(-c2ccnc(Nc3cccc(C(F)(F)F)c3)c2)o1 | 217 to 218
44 | Cc1cc2c(c(C)c1Br)C(c1ccccc1)CO2 (configuration not stated) | 135 to 136
45 | CCOC(=O)C(=O)N(CCOS(C)(=O)=O)N=Cc1ccccc1 | 93 to 95
46 | Cn1c(C=O)cc2cccc(F)c21 | 61 to 63
47 | O=C(O)CC1(O)CCC(N2CCC(Nc3ccncc3)CC2)CC1 (configuration not stated) | 261
48 | N#CCN1CCC(c2n[nH]c3cc(F)ccc23)CC1 | 149 to 151
49 | CCOc1nc(C)nc(N2CCN(c3ccc(F)cc3)CC2)c1[N+](=O)[O-] | 116 to 119
50 | CC(NC(=O)/C=C\C(=O)O)C(O)c1ccccc1 (configuration not stated) | 154 to 156
51 | O=C(O)C/C(C(=O)O)=C(\CCCCCCCCCCCCCCCCOS(=O)(=O)O)C(=O)O | 63 to 65
52 | CC(C)(C)n1nnc(N)n1 | 114 to 115
53 | Cc1ccc(Oc2ccccc2-n2cncn2)c(O)c1 | 132 to 133

Row | SMILES | melting point [°C]
54 | c1ccc2c(c1)CNc1ccccc1N2 | 114 to 116
55 | C[C@H]1C(=O)C[C@@H]2C[C@H]1OO[C@@]2(C)C=O | 92
56 | COc1ccc(-n2ccc(O)n2)cc1 | 167 to 170
57 | O=C(NC1CCN(CCCc2ccccc2)CC1)C1=Cc2cnc3cccc(n23)S1 | 190 to 191
58 | CC1(C2CCCC2)Cc2cc(OC3=C(O)C(=O)NC3=O)c(Cl)c(Cl)c2C1=O (configuration not stated) | 181 to 183
59 | Cc1ccc(C(=O)Nc2nc(-c3ccccc3)c(-c3nc4ccccc4c(=O)n3-c3ccccc3)s2)cc1 | > 275
60 | C[C@H]([C@H](O)c1ccc(O)c(O)c1)N1CCC(O)(c2ccccc2)CC1 (relative stereo) | 167 to 168
61 | CCCC(CC)(CC)C(=O)O[C@H]1C[C@H](O)C=C2C=C[C@H](C)[C@H](CC[C@@H]3C[C@@H](O)CC(=O)O3)[C@H]21 | 130 to 131
62 | CNC(=O)N1CC(Sc2ccc(Cl)cc2)C1 | 161 to 162
63 | O=C1CC(=Cc2ccccc2)C(=O)O1 | 167 to 170
64 | O=C1CCCc2cc(OCCOc3ccccc3)ccc21 | 109 to 113
65 | COc1ccc(N2CCN(Cc3n[nH]c4ccccc34)CC2)nc1 | 132 to 134
66 | CC(C)(C)NC(=O)N1CCn2c(c(C(N)=O)c(Br)c2C2CC2)C1 | 204 to 208
67 | CCOC(=O)N=P(c1ccccc1)(c1ccccc1)c1ccccc1CN1CCCCC1 | 121 to 123
68 | C=CCNC(=O)[C@H]1N(C(=O)OC(C)(C)C)CSC1(C)C | 94 to 98
69 | Cc1ncn(Nc2cccc(Cl)c2)c1-c1ccccc1 | 218
70 | O=C1CC(c2cccc(-c3noc(CCCO)n3)c2)=Nc2ccc(-c3ccc(F)cc3)cc2N1 | 220 to 222
71 | COc1ccc2c(c1)CCc1cc(OC)ccc1N2 | 123 to 124
72 | OC1CSC(Oc2ccccc2-c2nc3ccccc3s2)C(O)C1O (configuration not stated) | 196
